The text below walks through data of patent US20060052370A1, “Methods and compositions for treating nociceptive pain” (priority 2004, published 2006).

Entries after “also recorded” stand apart in the source; their conditions may differ. Read-outs that look alike come from different tables or passages of the source.

The conditions of data set [1]: memantine and morphine combination.
For data set [2] the following is noted: humans; cited from earlier work.
The conditions of data set [3]: humans; cited from earlier work. The source holds these as a separate data set.

On to `CN1CC[C@]23c4c5ccc(O)c4O[C@H]2[C@@H](O)C=C[C@H]3[C@H]1C5` [Morphine], for which the cum. fraction in data set [1] (Time 1) is given as 0.2; in data set [1] (Time 2), 0.3; in data set [1] (Time 4), 0.4; in data set [1] (Time 8) it was 0.5; in data set [1] (Time 12) it was 0.6; in data set [1] (Time 16) it was 0.7. Also, the cum. fraction was found to be 0.8 in data set [1] (Time 20) and 0.9 in data set [1] (Time 24).
By Tmax is commonly meant the time at which the peak concentration occurs. As for `CC(N)C12CC3CC(CC(C3)C1)C2` (stereo not shown) [Rimantadine, 1-(1-aminoethyl)adamantane], in data set [2], the “Human PK (t½)” value was 25 h and the Tmax was 6 h.
As for `CC12CC3CC(C)(C1)CC(N)(C3)C2` [Memantine, 1-amino-3,5-dimethyladamantane], the cum. fraction in data set [1] (Time 1) amounted to 0.2; in data set [1] (Time 2), 0.3; in data set [1] (Time 4) it was 0.4; in data set [1] (Time 8), 0.5; in data set [1] (Time 12) it was 0.6; in data set [1] (Time 16), 0.7. For the same molecule, the results for the cum. fraction in data set [1] (Time 20) and in data set [1] (Time 24) were 0.8 and 0.9, respectively. For the same molecule, the Tmax in data set [2] was 3 h. The “Dose Dependent Tox” value in data set [3] is “Dose escalation; also recorded: hallucination”.
Take `NC12CC3CC(CC(C3)C1)C2` [Amantadine, 1-amino-adamantane]: in data set [2], the “Human PK (t½)” value was 15 h and the Tmax was 3 h.
